Data published in ChEMBL document CHEMBL4507261, “Data for DCP probe A-192621” (2021).

How the values were obtained:
[1] = molecular target: Serine/threonine-protein kinase MRCK beta (Homo sapiens) (UniProt Q9Y5S2); settings: Compound concentration 1000.0 nM
[2] = molecular target: Melatonin receptor type 1B (Homo sapiens) (UniProt P49286); experiment: MT2 (ML1B) (h) Eurofins-Cerep binding assay; set-up: ligand concentration 0.05 nM; settings: filed as agonist, Compound concentration 10.0 uM
[3] = molecular target: Interferon-induced, double-stranded RNA-activated protein kinase (Homo sapiens) (UniProt P19525); settings: Compound concentration 1000.0 nM
[4] = molecular target: Tyrosine-protein kinase JAK1 (Homo sapiens) (UniProt P23458); settings: Compound concentration 1000.0 nM
[5] = molecular target: Serine/threonine-protein kinase 38-like (Homo sapiens) (UniProt Q9Y2H1); settings: Compound concentration 1000.0 nM
[6] = molecular target: Serine/threonine-protein kinase 17A (Homo sapiens) (UniProt Q9UEE5); settings: Compound concentration 1000.0 nM
[7] = molecular target: T1, 5-hydroxytryptamine receptor 3A (Homo sapiens) (UniProt P46098); experiment: 5-HT3 (h) Eurofins-Cerep binding assay; set-up: ligand concentration 0.5 nM; settings: filed as antagonist, Compound concentration 10.0 uM
T1 sequence (whole entry): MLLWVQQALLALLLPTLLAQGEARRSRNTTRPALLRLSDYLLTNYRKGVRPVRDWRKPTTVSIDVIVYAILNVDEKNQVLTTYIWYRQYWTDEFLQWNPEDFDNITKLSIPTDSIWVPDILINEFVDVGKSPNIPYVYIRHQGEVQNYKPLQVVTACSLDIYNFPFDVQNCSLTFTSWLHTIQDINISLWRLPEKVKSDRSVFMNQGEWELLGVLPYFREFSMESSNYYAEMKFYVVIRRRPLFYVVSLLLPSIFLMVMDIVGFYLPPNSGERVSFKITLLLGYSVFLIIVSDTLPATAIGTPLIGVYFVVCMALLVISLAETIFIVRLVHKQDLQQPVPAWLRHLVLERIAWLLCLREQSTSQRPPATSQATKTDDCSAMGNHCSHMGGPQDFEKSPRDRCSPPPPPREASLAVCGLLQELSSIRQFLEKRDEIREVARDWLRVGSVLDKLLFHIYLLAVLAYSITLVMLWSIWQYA

[8] = molecular target: Myosin-IIIa (Homo sapiens) (UniProt Q8NEV4); settings: Compound concentration 1000.0 nM
[9] = molecular target: NUAK family SNF1-like kinase 1 (Homo sapiens) (UniProt O60285); settings: Compound concentration 1000.0 nM
[10] = molecular target: Serine/threonine-protein kinase Nek7 (Homo sapiens) (UniProt Q8TDX7); settings: Compound concentration 1000.0 nM
[11] = molecular target: Dual specificity mitogen-activated protein kinase kinase 3 (Homo sapiens) (UniProt P46734); settings: Compound concentration 1000.0 nM
[12] = system: Epidermal growth factor receptor (Homo sapiens), P00533 [UNDEFINED MUTATION]; settings: Compound concentration 1000.0 nM
[13] = molecular target: Adenosine receptor A2b (Homo sapiens) (UniProt P29275); experiment: A2B (h) Eurofins-Cerep binding assay; set-up: ligand concentration 5 nM; settings: filed as antagonist, Compound concentration 10.0 uM
[14] = molecular target: Casein kinase II subunit alpha (Homo sapiens) (UniProt P68400); settings: Compound concentration 1000.0 nM
[15] = molecular target: Protein kinase C eta type (Homo sapiens) (UniProt P24723); settings: Compound concentration 1000.0 nM
[16] = molecular target: Misshapen-like kinase 1 (Homo sapiens) (UniProt Q8N4C8); settings: Compound concentration 1000.0 nM
[17] = molecular target: Death-associated protein kinase 2 (Homo sapiens) (UniProt Q9UIK4); settings: Compound concentration 1000.0 nM
[18] = system: Phosphatidylinositol 4,5-bisphosphate 3-kinase catalytic subunit alpha isoform (Homo sapiens), P42336 [H1047L]; settings: Compound concentration 1000.0 nM
[19] = molecular target: Serine/threonine-protein kinase VRK2 (Homo sapiens) (UniProt Q86Y07); settings: Compound concentration 1000.0 nM
[20] = molecular target: Serine/threonine-protein kinase Nek9 (Homo sapiens) (UniProt Q8TD19); settings: Compound concentration 1000.0 nM
[21] = molecular target: Receptor-type tyrosine-protein kinase FLT3 (Homo sapiens) (UniProt P36888); settings: Compound concentration 1000.0 nM
[22] = molecular target: Bone morphogenetic protein receptor type-1A (Homo sapiens) (UniProt P36894); settings: Compound concentration 1000.0 nM
[23] = molecular target: Serine/threonine-protein kinase RIO3 (Homo sapiens) (UniProt O14730); settings: Compound concentration 1000.0 nM
[24] = molecular target: Dual specificity mitogen-activated protein kinase kinase 2 (Homo sapiens) (UniProt P36507); settings: Compound concentration 1000.0 nM
[25] = molecular target: Tyrosine-protein kinase JAK1 (Homo sapiens) (UniProt P23458); settings: Compound concentration 1000.0 nM; remark: listed apart in the source
[26] = molecular target: Angiotensin-converting enzyme (Homo sapiens) (UniProt P12821); experiment: ACE (h) Eurofins-Cerep enzyme and uptake assay; settings: Compound concentration 10.0 uM
[27] = molecular target: T2, Muscarinic acetylcholine receptor M5 (Homo sapiens) (UniProt P08912); experiment: M5 (h) Eurofins-Cerep binding assay; set-up: ligand concentration 0.3 nM; settings: filed as antagonist, Compound concentration 10.0 uM
T2 sequence (whole entry): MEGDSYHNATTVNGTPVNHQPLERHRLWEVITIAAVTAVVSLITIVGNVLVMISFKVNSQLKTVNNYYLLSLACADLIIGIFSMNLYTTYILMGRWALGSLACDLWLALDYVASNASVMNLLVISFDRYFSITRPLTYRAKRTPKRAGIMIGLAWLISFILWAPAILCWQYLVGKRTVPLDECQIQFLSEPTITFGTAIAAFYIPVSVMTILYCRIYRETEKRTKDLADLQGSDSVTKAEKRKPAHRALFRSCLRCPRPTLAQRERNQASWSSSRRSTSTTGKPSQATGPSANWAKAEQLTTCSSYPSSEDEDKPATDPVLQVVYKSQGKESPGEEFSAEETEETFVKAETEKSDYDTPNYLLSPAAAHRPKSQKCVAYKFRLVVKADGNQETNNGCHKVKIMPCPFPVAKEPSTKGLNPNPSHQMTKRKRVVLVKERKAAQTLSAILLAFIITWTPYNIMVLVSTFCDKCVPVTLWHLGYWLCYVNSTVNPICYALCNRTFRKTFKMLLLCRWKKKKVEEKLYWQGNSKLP

[28] = molecular target: Tyrosine-protein kinase CSK (Homo sapiens) (UniProt P41240); settings: Compound concentration 1000.0 nM
[29] = molecular target: voltage-gated Na+ channel (site 2) (Rattus norvegicus, UniProt F1LQQ7+O08562+O88420+O88457+P04774+P04775+P08104+P15389+P15390+Q62968); experiment: Na+ channel (site 2) Eurofins-Cerep binding assay; set-up: incubation time 60 min, incubation temperature 37°C, ligand concentration 10 nM; settings: rat cerebral cortex (source of protein), probe [3H]batrachotoxin (10 nM), compound concentration 10 uM, read-out: % Inhibition of Control Specific Binding (Mean n=2)

Chain of Tyrosine-protein kinase JAK1 (Homo sapiens) (P23458 whole entry): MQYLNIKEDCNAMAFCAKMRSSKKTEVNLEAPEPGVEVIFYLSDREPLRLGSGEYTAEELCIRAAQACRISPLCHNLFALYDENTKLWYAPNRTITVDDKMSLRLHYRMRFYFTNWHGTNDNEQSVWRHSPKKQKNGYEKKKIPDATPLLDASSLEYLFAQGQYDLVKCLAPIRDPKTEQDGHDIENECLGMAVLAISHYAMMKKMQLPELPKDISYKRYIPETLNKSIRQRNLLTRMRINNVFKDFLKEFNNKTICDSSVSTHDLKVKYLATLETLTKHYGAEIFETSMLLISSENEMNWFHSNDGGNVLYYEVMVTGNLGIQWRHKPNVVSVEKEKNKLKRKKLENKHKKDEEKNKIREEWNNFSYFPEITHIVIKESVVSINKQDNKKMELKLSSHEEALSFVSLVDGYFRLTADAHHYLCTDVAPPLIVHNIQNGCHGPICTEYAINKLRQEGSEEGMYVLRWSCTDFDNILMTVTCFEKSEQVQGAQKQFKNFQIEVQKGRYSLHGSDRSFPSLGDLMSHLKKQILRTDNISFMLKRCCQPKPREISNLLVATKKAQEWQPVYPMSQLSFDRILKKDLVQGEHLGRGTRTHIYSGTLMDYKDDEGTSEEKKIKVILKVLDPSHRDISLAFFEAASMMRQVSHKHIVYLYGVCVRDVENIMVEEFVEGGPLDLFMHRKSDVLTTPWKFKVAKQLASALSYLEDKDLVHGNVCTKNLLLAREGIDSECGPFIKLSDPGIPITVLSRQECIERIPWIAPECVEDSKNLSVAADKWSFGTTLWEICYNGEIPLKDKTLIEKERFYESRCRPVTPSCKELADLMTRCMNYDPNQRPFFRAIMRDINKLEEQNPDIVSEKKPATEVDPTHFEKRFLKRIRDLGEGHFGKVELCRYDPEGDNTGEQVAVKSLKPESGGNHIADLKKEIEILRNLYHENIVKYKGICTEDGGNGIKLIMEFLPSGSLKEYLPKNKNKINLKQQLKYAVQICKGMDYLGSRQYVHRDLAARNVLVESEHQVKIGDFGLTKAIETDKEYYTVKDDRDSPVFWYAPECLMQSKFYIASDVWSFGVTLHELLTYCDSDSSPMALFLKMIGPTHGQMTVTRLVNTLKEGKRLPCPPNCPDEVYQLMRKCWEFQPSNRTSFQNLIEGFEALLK
Chain of Epidermal growth factor receptor (Homo sapiens), P00533 [UNDEFINED MUTATION] (P00533 whole entry, looked up, stated change not applied): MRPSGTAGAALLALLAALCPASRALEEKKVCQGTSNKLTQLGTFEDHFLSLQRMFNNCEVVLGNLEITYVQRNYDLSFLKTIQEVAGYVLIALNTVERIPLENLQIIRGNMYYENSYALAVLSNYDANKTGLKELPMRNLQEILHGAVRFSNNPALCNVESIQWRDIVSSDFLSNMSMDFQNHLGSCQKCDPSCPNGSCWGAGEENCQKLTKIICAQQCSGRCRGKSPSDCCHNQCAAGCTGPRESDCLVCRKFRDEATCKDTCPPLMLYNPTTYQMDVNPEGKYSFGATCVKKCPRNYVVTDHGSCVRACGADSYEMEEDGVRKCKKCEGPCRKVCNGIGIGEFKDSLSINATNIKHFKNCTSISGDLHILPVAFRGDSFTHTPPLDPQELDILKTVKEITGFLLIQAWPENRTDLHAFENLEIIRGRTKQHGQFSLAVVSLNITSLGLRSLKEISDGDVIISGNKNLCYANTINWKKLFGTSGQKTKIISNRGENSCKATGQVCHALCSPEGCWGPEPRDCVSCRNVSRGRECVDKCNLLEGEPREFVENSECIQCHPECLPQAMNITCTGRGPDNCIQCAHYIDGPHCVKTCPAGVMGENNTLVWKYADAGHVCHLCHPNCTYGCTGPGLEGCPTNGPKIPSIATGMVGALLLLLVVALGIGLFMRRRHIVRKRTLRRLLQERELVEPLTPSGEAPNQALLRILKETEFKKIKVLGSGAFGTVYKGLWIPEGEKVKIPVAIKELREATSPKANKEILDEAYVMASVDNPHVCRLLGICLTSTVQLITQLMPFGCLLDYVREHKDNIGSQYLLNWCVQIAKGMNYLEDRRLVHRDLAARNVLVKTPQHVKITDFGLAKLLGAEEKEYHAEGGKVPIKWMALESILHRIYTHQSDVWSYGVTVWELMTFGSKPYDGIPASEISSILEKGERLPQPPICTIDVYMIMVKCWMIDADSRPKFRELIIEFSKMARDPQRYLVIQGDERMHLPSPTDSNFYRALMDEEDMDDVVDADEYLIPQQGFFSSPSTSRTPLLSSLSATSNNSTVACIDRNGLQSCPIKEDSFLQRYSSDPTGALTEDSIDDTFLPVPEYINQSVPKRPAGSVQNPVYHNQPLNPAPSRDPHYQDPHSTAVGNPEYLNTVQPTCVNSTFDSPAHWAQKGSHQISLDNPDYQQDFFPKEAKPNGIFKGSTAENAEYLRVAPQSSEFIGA
Chain of Death-associated protein kinase 2 (Homo sapiens) (Q9UIK4 whole entry, looked up, canonical isoform): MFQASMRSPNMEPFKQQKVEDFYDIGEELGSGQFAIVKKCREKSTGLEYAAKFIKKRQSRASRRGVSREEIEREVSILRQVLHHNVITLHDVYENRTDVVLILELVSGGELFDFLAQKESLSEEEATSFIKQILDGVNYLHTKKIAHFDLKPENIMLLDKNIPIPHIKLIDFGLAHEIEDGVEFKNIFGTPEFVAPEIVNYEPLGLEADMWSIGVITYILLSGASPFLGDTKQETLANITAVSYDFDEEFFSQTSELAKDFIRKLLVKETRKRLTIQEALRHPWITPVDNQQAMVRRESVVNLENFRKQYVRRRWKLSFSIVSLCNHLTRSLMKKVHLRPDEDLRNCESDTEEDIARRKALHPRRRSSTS
Chain of Casein kinase II subunit alpha (Homo sapiens) (P68400 whole entry, looked up): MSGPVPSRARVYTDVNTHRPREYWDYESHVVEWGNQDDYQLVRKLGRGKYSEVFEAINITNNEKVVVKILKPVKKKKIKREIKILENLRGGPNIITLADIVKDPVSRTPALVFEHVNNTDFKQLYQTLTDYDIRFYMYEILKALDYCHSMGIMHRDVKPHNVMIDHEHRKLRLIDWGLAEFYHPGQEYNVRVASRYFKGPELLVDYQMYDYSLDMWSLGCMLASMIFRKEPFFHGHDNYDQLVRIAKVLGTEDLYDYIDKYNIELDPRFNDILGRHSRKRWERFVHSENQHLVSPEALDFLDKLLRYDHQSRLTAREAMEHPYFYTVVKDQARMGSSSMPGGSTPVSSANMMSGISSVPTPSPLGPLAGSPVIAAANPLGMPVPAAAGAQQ
Chain of Adenosine receptor A2b (Homo sapiens) (P29275 whole entry): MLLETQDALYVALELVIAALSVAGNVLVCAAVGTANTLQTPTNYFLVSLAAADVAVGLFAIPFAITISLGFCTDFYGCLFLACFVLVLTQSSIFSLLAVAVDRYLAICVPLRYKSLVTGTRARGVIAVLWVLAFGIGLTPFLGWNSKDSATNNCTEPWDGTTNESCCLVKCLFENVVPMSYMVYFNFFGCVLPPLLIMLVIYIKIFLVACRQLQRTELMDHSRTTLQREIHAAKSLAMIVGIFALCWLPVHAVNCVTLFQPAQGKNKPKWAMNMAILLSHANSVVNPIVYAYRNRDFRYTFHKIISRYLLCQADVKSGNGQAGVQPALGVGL
Chain of Serine/threonine-protein kinase Nek7 (Homo sapiens) (Q8TDX7 whole entry, looked up): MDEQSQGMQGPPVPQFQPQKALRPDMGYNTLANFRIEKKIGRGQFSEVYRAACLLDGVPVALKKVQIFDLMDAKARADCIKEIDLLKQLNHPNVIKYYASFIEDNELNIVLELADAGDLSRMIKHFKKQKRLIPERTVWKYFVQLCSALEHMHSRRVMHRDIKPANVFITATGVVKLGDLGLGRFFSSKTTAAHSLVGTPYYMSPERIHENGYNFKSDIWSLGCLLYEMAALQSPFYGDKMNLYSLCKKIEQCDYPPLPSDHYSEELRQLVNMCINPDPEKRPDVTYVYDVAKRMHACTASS
Chain of Tyrosine-protein kinase CSK (Homo sapiens) (P41240 2-450 limits assumed): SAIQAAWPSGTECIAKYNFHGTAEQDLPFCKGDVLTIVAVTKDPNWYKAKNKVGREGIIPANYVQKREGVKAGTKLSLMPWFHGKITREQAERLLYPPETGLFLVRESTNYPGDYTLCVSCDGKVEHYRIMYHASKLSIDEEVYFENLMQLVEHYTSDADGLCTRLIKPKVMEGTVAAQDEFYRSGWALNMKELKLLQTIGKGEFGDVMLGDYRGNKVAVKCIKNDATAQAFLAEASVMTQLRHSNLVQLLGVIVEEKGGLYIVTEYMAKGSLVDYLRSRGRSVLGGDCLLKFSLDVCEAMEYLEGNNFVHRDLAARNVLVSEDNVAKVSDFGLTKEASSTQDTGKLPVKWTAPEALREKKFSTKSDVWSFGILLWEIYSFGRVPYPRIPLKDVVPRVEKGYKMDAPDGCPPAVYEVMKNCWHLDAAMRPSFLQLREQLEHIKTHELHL
Chain of Dual specificity mitogen-activated protein kinase kinase 3 (Homo sapiens) (P46734 whole entry): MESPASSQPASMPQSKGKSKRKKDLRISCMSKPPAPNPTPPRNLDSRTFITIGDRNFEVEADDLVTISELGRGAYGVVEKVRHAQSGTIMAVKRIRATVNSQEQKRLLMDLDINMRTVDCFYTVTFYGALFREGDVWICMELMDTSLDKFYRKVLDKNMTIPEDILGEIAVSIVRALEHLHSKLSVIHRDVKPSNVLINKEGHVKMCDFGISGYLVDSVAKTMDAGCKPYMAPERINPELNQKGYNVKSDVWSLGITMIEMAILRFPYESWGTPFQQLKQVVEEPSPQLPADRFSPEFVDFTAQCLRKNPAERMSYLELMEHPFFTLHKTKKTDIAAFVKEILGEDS
Chain of Serine/threonine-protein kinase 38-like (Homo sapiens) (Q9Y2H1 2-464 limits assumed): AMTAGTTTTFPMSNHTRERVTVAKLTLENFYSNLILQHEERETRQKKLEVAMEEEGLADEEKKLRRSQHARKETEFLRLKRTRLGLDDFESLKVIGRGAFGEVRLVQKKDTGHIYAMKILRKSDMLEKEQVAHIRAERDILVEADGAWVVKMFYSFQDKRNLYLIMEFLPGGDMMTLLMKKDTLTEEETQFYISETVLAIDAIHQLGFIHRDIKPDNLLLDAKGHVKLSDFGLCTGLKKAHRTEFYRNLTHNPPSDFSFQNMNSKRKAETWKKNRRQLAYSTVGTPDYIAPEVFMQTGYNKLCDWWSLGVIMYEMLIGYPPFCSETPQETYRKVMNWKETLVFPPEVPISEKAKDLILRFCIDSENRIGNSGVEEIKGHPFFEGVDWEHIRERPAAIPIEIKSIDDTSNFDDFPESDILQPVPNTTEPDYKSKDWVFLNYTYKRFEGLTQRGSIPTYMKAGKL

Row | Structure (SMILES) | residual activity [1] [%] | % Inhibition of Control Specific Binding (Mean n=2) [2] [%] | residual activity [3] [%] | residual activity [4] [%] | residual activity [5] [%] | residual activity [6] [%] | % Inhibition of Control Specific Binding (Mean n=2) [7] [%] | residual activity [8] [%] | residual activity [9] [%] | residual activity [10] [%] | residual activity [11] [%] | residual activity [12] [%] | % Inhibition of Control Specific Binding (Mean n=2) [13] [%] | residual activity [14] [%] | residual activity [15] [%] | residual activity [16] [%] | residual activity [17] [%] | residual activity [18] [%] | residual activity [19] [%] | residual activity [20] [%] | also measured
1 | CCCOc1ccc([C@H]2[C@H](C(=O)O)[C@@H](c3ccc4c(c3)OCO4)CN2CC(=O)Nc2c(CC)cccc2CC)cc1 [A-192621] | 87 | 2.4 | 100 | 94 | 88 | 92 | -10.7 | 100 | 83 | 96 | 60 | 100 | -6.1 | 69 | 100 | 68 | 100 | 85 | 61 | 95 | residual activity [21]: 87%; residual activity [22]: 100%; residual activity [23]: 100%; residual activity [24]: 62%; residual activity [25]: 95%; % Inhibition of Control Values (Mean n=2) [26]: -12.6%; % Inhibition of Control Specific Binding (Mean n=2) [27]: 10%; residual activity [28]: 80%; inhibition at 60 min, 10 µM [29]: 29.1%
2 | CCCOc1ccc([C@@H]2[C@@H](C(=O)O)[C@H](c3ccc4c(c3)OCO4)CN2CC(=O)Nc2c(CC)cccc2CC)cc1 [A-1806262] | 97 | -3.1 | 100 | 88 | 100 | 92 | -7.1 | 100 | 99 | 100 | 82 | 78 | -8.6 | 100 | 100 | 78 | 80 | 83 | 59 | 100 | residual activity [21]: 100%; residual activity [22]: 89%; residual activity [23]: 100%; residual activity [24]: 89%; residual activity [25]: 100%; % Inhibition of Control Values (Mean n=2) [26]: -13.7%; % Inhibition of Control Specific Binding (Mean n=2) [27]: 0.9%; residual activity [28]: 91%; inhibition at 60 min, 10 µM [29]: 24.4%
